pIC50: −log10 of the molar value.
Experiments:
[1] = biological target: MAP kinase-interacting serine/threonine-protein kinase 1 (Homo sapiens, UniProt Q9BUB5); experiment: In Vitro Kinase Assay
Description: (§1) MNK1 and MNK2 inhibitor activity was determined using recombinant kinase domains expressed in E. coli. MNK1 and MNK2 were expressed as GST fusion proteins and the GST tag was removed using PreScission protease. After concentration to 10-15 mg/ml the proteins were flash frozen in liquid nitrogen and stored at −80° C. […] This reaction mixture was then used immediately for the activation of the MNKs. The activation of the MNK1 was performed by incubating 5.0 μM of MNK1 with 0.3 μM of activated ERK2 and 500 μM ATP at 30° C. for 6 hours. The activation of MNK2 was performed by incubating 50 μM of MNK2 with 3.0 μM of activated ERK2 and 500 μM ATP at 30° C. for 2 hours. The activated MNKs were stored at −20° C. until required for assay.

[2] = biological target: MAP kinase-interacting serine/threonine-protein kinase 2 (Homo sapiens, UniProt Q9HBH9); experiment: In Vitro Kinase Assay
Sequence of MAP kinase-interacting serine/threonine-protein kinase 2 (Q9HBH9 whole entry): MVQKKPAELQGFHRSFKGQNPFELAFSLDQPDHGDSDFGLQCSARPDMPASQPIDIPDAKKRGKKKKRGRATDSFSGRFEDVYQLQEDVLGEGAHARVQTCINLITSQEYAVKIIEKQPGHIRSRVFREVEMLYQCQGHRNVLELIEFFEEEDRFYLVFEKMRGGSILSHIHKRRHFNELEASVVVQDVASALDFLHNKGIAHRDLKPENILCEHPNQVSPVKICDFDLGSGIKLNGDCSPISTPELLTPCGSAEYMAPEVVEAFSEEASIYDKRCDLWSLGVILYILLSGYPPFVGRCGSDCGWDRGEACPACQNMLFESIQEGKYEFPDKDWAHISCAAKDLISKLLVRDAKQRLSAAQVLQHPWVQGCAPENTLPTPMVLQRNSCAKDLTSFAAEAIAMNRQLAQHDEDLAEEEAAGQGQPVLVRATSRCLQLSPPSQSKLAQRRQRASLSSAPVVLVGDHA
Description: as §1

Sequence of MAP kinase-interacting serine/threonine-protein kinase 1 (Q9BUB5 whole entry, the tested form may be a part): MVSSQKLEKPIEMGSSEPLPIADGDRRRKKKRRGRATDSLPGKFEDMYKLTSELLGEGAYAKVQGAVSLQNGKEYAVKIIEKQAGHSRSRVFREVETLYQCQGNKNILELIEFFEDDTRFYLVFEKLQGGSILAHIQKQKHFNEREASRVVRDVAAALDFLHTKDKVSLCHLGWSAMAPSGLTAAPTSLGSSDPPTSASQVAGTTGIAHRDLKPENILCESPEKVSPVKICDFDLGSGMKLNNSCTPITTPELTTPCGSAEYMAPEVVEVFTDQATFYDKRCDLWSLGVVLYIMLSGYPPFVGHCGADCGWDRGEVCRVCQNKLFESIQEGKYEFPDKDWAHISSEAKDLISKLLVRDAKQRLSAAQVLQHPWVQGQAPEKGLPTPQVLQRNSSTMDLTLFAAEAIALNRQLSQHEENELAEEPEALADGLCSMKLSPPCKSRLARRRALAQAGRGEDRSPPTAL

For `CN1CCN(C(=O)c2ccc(-c3ccc4ncc(-c5ccc(C#N)cc5)n4n3)cc2)CC1` [US9908886, Example 54], the pIC50 [1] was > 7.00 and the pIC50 [2] was > 7.00.

Source: BindingDB's records for patent US9908886 (Agency For Science, Technology and Research, 2018)
